Source: patent US20250011316A1, “PEROXIREDOXIN 3 INHIBITORS AND METHODS OF USE FOR TREATING CANCER” (Wake Forest University Health Sciences, priority 2022, published 2025)
Values after ≈ are worked out from the molar mass of the structure shown. Where two headings read alike, the source gives them in different places.

Tests used:
[1] = Solubility Assay (HPLC); type: physicochemical; settings: 20 mM HEPES, 100 mM NaCl, pH 7.5, 18-24 hours at ambient temperature
Procedure: A 20 mM stock solution was made for each compound in DMSO. To measure solubility, 0.03-0.05 mL of the stock was added to 0.27 mL 20 mM HEPES, 100 mM NaCl, pH 7.5. The solution was mixed and rotated 18-24 hours at ambient temperature. The next day, solutions were centrifuged for 10 min at 20,000×g at […] to remove insoluble, solid material. Next, 100 μL of the supernatant containing the soluble compound was added to 900 μL DMSO and High Performance Liquid Chromatography was performed as described in Table 1 and either HIPLC gradient 1 (Table 2) or HIPLC gradient 2 (Table 3). For each analog, a 200 μM standard and a 20 μM standard were prepared and run in parallel (standards were dissolved completely in […]). The amount ofLcompound in the experimental sample was calculated by comparing the area under the curve for compound peak to the area for the closest standard and correcting for dilution.

[2] = tested on: human SK—OV-3 ovarian cancer cells; assay: Cellular Activity Assay (cytotoxicity, crystal violet); type: cell-based; settings: SK—OV-3 cells, treated for 48 hr, 0.1-100 μM, crystal violet absorbance at 540 nm
Text: (§1) To test the activity of compounds, two complimentary assays were used as described below. The Biochemical PRX3 Inhibition Assay tests the ability of each compound to crosslink PRX3 in a simple, in vitro system. In the Cellular Activity Assay, we are testing the ability of compounds to kill SK—OV-3 ovarian cancer cells.
The Cellular Activity Assay measures the EC50 of each compound in human SK—OV-3 ovarian cancer cells TS to be taken into the cell, transported to the mitochondria, and crosslink PRX3.
The cytotoxicity of compounds was measured as described in Nelson et al. (2021) Antioxidants (Basel) 10, 150; Cunniff et al. (2015) PloS one 10, e0127310; and Newick et al. (2012) PloS one 7, e39404. SK—OV-3 is an adherent, epithelial, adenocarcinoma cell line obtained from ATCC (ref #: HTB-77). SK—OV-3 cells are resistant to the commonly used chemotherapeutics, cis-platinum and doxorubicin. For this […], SK—OV-3 cells were plated in a 96-well plate. After 24 h recovery, the cells were treated for 48 hr with multiple concentrations of each compound ranging from 0.1-100 μM.
Cells were washed with PBS to remove dead cells and the remaining live cells were fixed with 3.0% formaldehyde and stained with 0.1% crystal violet. The amount of crystal violet was determined by reading the absorbance at 540 nm (crystal violet dye dissolved in 100% methanol) using a plate reader. The signal for crystal violet dye is proportional to the biomass of remaining live cells. GraphPad Prism9 software was used to calculate the effective inhibitory concentration (EC50) of test compounds. Results for each compound, are normalized to the amount of cells in control wells treated with the equivalent concentration of DMSO (negative control). TS or Compound 4 were included in each set of assays as a positive control.

[3] = molecular target: T1, purified human PRX3 (Homo sapiens, UniProt P30048); assay: Biochemical PRX3 Inhibition Assay (non-reducible crosslink by SDS PAGE + single adduct by MALDI-TOF MS); settings: 100 μM PRX3 with TRX2/thioredoxin reductase/NADPH system and hydrogen peroxide, 1-2 hr at 37° C.
T1 construct: made in house
T1 sequence (P30048 62-256): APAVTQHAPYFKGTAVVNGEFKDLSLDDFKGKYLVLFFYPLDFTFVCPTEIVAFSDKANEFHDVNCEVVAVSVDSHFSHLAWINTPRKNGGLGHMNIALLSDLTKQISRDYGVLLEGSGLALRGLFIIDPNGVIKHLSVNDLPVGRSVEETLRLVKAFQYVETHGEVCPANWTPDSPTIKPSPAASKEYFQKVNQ
Text: The compounds described herein generally react with two essential cysteine residues in the mitochondrial peroxidase PRX3, leading to the formation of a non-reducible, covalent crosslink of two PRX3 monomers. This crosslink inactivates PRX3. Increased PRX3 crosslink is associated with mitochondrial stress, increased cell death in cell models of malignant mesothelioma and is associated with decreased tumor volume in a mouse model. Cunniff et al. (2015) PloS one 10, e0127310.
as §1
This assay tests the ability of each compound to form a covalent adduct with PRX3. The assay is performed as described in Nelson et al. (2021) Antioxidants (Basel) 10, 150; and Cunniff et al. (2015) PloS one 10, e0127310, and follows the appearance of non-reducible PRX3 crosslinks by SDS PAGE gel electrophoresis and follows the appearance of single PRX3 adducts by mass spectrometry. For this assay, purified human PRX3, hydrogen peroxide (the PRX3 substrate) and all the components required to enable PRX3 to catalytically cycle (thioredoxin-thioredoxin reductase-NAPDH system) are included (details below).
The biochemical PRX3 Inhibition assay contains 100 μM PRX3, 50 μM human TRX2, 0.5 μM mouse thioredoxin reductase, and a NADPH regenerating system composed of 3.2 mM glucose 6-phosphate, 3.2 U/ml glucose 6-phosphate dehydrogenase and 0.4 mM NADPH. Samples are incubated for 1-2 hr at 37° C. with either 0.2 mM TS (positive control), compounds or an equivalent volume of DMSO (negative control). During this incubation, hydrogen peroxide is added to induce turnover of PRX3. Reactions are stopped by the addition of a buffer containing 100 mM dithiothreitol (to break disulfide bonds) and SDS (detergent to denature proteins). NADPH, Glucose 6-Phosphate, and glucose 6-phosphate dehydrogenase were purchased from Sigma Aldrich. PRX3, thioredoxin, and thioredoxin reductase were all purified to >98% purity in the Lowther laboratory according to protocols referenced in Nelson et al. (2021) Antioxidants (Basel) 10, 150; and Cunniff et al. (2015) PloS one 10, e0127310.
To measure the amount of PRX3 crosslink, proteins in the reaction were separated by SDS-polyacrylamide gel electrophoresis and stained for total protein using GelCode Blue (Life Technologies). The amount of unmodified PRX3 and TS-PRX3 crosslink was measured by densiometric analysis of the signal for the PRX3 band running at the MW of a PRX3 crosslink (˜46 kDa) compared to the PRX3 signal at the MW of the un-modified PRX3 (−23 kD).
To measure covalent adduct formation on a single PRX3 monomer, each reaction was exchanged into a mass spectrometry compatible buffer containing 40 mM ammonium citrate, pH 8.3 made in HPLC water. Sample was mixed 1:1 with a matrix solution containing 30 mg/mL sinapinic acid in 70% (vol/vol) acetonitrile, 0.2% formic acid and spotted to onto the sample plate. PRX3 mass was measured by MALDI-TOF MS analysis on a Bruker Daltonics MALDI-TOF MS spectrometer. Spectra were analyzed in FLEXAnalysis Software. The intensity of the reduced PRX3 peak (SH) and intensity of the analog adduct peak was determined and corrected for background signal at the adduct peak in the DMSO control. The fraction of single analog adduct in the monomer peak was determined by dividing the intensity of the adduct peak by the summed intensity of the SH and adduct peaks.

[4] = HEPES/NaCl buffer, aqueous with cosolvent or surfactant or cyclodextrin, kinetic from dmso stock, read-out: Solubility

| Structure (SMILES) | solubility [1, 4] [µM] | EC50 ([2]; Homo sapiens) [µM] | PRX3 Inhibition (Crosslink + Mono-adduct) [3] | solubility [1] | EC50 [2] [µM] |
| --- | --- | --- | --- | --- | --- |
| C=C(NC(=O)c1csc(-c2ccc(CNC(=O)COCCOC)cc2)n1)C(=O)NC(=C)C(=O)OC [Compound 35, Methyl 2-(2-(2-(4-((2-(2-methoxyethoxy)acetamido)methyl)phenyl)thiazole-4-carboxamido)acrylamido)acrylate] | 100 to 1000 (≈ 50.3 to 503 µg/mL) | 1 to 10 | +++ (>90%) |  |  |
| C=C(NC(=O)c1csc(-c2ccc(CNC(=O)C3CCOCC3)cc2)n1)C(=O)NC(=C)C(=O)OC [Compound 36, Methyl 2-(2-(2-(4-((tetrahydro-2H-pyran-4-carboxamido)methyl)phenyl)thiazole-4-carboxamido)acrylamido)acrylate] | < 100 | 1 to 10 | +++ (>90%) |  |  |
| C=C(NC(=O)c1csc(-c2ccc(CNC(=O)CCCCCCl)cc2)n1)C(=O)NC(=C)C(=O)OC [Compound 37, Methyl 2-(2-(2-(4-((6-chlorohexanamido)methyl)phenyl)thiazole-4-carboxamido)acrylamido)acrylate] | < 100 | 1 to 10 | + (5-50%) |  |  |
| C=C(NC(=O)c1csc(-c2ccc(CNC(=O)CCNC(=O)OC(C)(C)C)cc2)n1)C(=O)NC(=C)C(=O)OC [Compound 38, Methyl 2-(2-(2-(4-((3-((tert-butoxycarbonyl)amino)propanamido)methyl)phenyl)thiazole-4-carboxamido)acrylamido)acrylate] | < 100 | 1 to 10 | ++ (50-90%) |  |  |
| C=C(NC(=O)c1csc(-c2ccc(CNC(=O)CCCCCN=[N+]=[N-])cc2)n1)C(=O)NC(=C)C(=O)OC [Compound 39, Methyl 2-(2-(2-(4-((6-azidohexanamido)methyl)phenyl)thiazole-4-carboxamido)acrylamido)acrylate] | < 100 | 1 to 10 | ++ (50-90%) |  |  |
| C=C(NC(=O)c1csc(N2CCC(CNC(=O)CCCCCCl)CC2)n1)C(=O)NC(=C)C(=O)OC [Compound 40, Methyl 2-(2-(2-(4-((6-chlorohexanamido)methyl)piperidin-1-yl)thiazole-4-carboxamido)acrylamido)acrylate] | 100 to 1000 (≈ 52.6 to 526 µg/mL) | 10 to 25 | +++ (>90%) |  |  |
| C=C(NC(=O)c1csc(N2CCC(CNC(=O)COCCOC)CC2)n1)C(=O)NC(=C)C(=O)OC [Compound 41, Methyl 2-(2-(2-(4-((2-(2-methoxyethoxy)acetamido)methyl)piperidin-1-yl)thiazole-4-carboxamido)acrylamido)acrylate] | > 1000 | 10 to 25 | +++ (>90%) |  |  |
| C=C(NC(=O)c1csc(-c2ccc(COC(=O)NCCCOC)cc2)n1)C(=O)NC(=C)C(=O)OC [Compound 42, Methyl 2-(2-(2-(4-((((3-methoxypropyl)carbamoyl)oxy)methyl)phenyl)thiazole-4-carboxamido)acrylamido)acrylate] | < 100 | 1 to 10 | +++ (>90%) |  |  |
| C=C(NC(=O)c1csc(-c2cccc(CNC(=O)OC(C)(C)C)c2)n1)C(=O)NC(=C)C(=O)OC [Compound 43, Methyl 2-(2-(2-(3-(((tert-butoxycarbonyl)amino)methyl)phenyl)thiazole-4-carboxamido)acrylamido)acrylate] | < 100 | 1 to 10 | +++ (>90%) |  |  |
| C=C(NC(=O)c1csc(-c2ccc(CNC(=O)CCCCCNC(=O)OC(C)(C)C)cc2)n1)C(=O)NC(=C)C(=O)OC [Compound 44, Methyl 2-(2-(2-(4-((6-((tert-butoxycarbonyl)amino)hexanamido)methyl)phenyl)thiazole-4-carboxamido)acrylamido)acrylate] |  |  | +++ (>90%) | + (<0.1 mM) | 1 to 10 |
| C=C(NC(=O)c1csc(N2CCC(NC(=O)CC3CCOCC3)CC2)n1)C(=O)NC(=C)C(=O)OC [Compound 51, Methyl 2-(2-(2-(4-(2-(tetrahydro-2H-pyran-4-yl)acetamido)piperidin-1-yl)thiazole-4-carboxamido)acrylamido)acrylate] | < 100 |  | +++ (>90%) |  |  |
| C=C(NC(=O)c1csc(N2CCC(NC(=O)C3COCCO3)CC2)n1)C(=O)NC(=C)C(=O)OC (centres unmarked) [Compound 58, Methyl 2-(2-(2-(4-(1,4-dioxane-2-carboxamido)piperidin-1-yl)thiazole-4-carboxamido)acrylamido)acrylate] | 100 to 1000 (≈ 49.4 to 494 µg/mL) |  | +++ (>90%) |  |  |
| C=C(NC(=O)c1csc(N2CCN(C(=O)C3CCOCC3)CC2)n1)C(=O)NC(=C)C(=O)OC [Compound 59, Methyl 2-(2-(2-(4-(tetrahydro-2H-pyran-4-carbonyl)piperazin-1-yl)thiazole-4-carboxamido)acrylamido)acrylate] | 100 to 1000 (≈ 47.8 to 478 µg/mL) |  | +++ (>90%) |  |  |
| C=C(NC(=O)c1csc(N2CCN(C(=O)OC(C)(C)C)[C@H](C)C2)n1)C(=O)NC(=C)C(=O)OC [Compound 60, Tert-butyl (R)-4-(4-((3-((3-methoxy-3-oxoprop-1-en-2-yl)amino)-3-oxoprop-1-en-2-yl)carbamoyl)thiazol-2-yl)-2-methylpiperazine-1-carboxylate] | < 100 |  | +++ (>90%) |  |  |
